Earlier results as cited in patent US20080274188A1, “Oral Vehicle For Systemic Pharmaceuticals” (priority 2005, published 2008).
Read-outs that look alike come from different tables or passages of the source.

Conditions: for Solubility water: words

For `CC(=O)Nc1ccc(O)cc1` [Acetaminophen], the Solubility water (cold water) is listed as “Cold-v slight” and the Solubility water (hot water) is listed as “Hot-considerably more”.

In the case of `C1CNCCN1` [Piperazine], the Solubility water (temperature not stated) is listed as “Freely soluble”.

For `Cc1onc(-c2ccccc2Cl)c1C(=O)N[C@@H]1C(=O)N2[C@@H]1SC(C)(C)[C@@H]2C(=O)O` [Cloxacillin, Cloxacillin (Na monohydrate)], the Solubility water (temperature not stated) is given as “soluble”.

For `COc1ccc2c3c1O[C@H]1[C@@H](O)C=C[C@H]4[C@@H](C2)N(C)CC[C@@]341` [Codeine phosphate], the “Solubility water (ml of water for 1 g)” value (temperature not stated, 1 g in the stated ml) is given as 1 g in 2.5 ml water.
